According to patent US20130196996A1, “USE OF ISOXAZOLINE COMPOUNDS AND COMPOSITIONS IN BLADDER CANCER” (CPSI STOCKHOLDER TRUST, priority 2010, published 2013):
“And” between values parts separate entries of the source, which are not always exact repeats. Equal entries are not always repeated.

Experiments:
[1] = Body weight, general health and survival of BBN mice, Experiment 1; format: in vivo
Method: (§1) All animals received BBN(N-butyl-N-(4-hydroxybutyl)-nitrosamine, TCI America, Portland, Oreg.) 0.05% in water in brown bottles for 22 weeks. BBN is known to induce cancer in the bladder. Mice were treated with either the CPSI compounds or vehicle for weeks 16-22. Timing of dosing was intended to correspond with the timeframe of tumor progression from CIS to invasive disease, as determined in prior experiments.
(§2) Thirty 3-month old male mice (n=10/group) were gavage fed either vehicle (PEG 300, methylcellulose) (control group), CPSI-2705, or CPSI-1306 at 25 mg/kg for weeks 16-22.
Animals were inspected daily for general health with weights recorded at least biweekly and more frequently in the last several weeks based on recorded weight loss. Animals were euthanized by CO2 inhalation and cervical dislocation. Bladders were harvested, weighed, placed in PBS/formaldehyde for 24 hours and then transferred to PBS. Upper tracts (kidney and ureters) were inspected for hydronephrosis. Bladders were assessed for tumor stage and grade and amount of pathologic involvement with invasive disease. […] Bladders were step sectioned, embedded in paraffin, serially sectioned and stained with H&E and assessed for tumor stage and grade and amount of pathologic involvement with invasive disease. […]

[2] = tested on: BBN model of bladder cancer; test: BBN model of bladder cancer, Experiment 2: escalating dose of CPSI-1306; format: in vivo, C57Bl/6 mice; details: for mean bladder weights at euthanasia as surrogate for tumor volume, effect vs vehicle: p<0.05 Dunnett post-hoc
Method: (§3) Three-month old C57Bl/6 mice were purchased from Jackson Laboratories (Bar Harbor, Me.) and Charles River (Wilmington, Mass.). The animals were maintained at the University of Connecticut Center for Laboratory Animal Care under National Institutes of Health guidelines. All procedures were approved by an institutional animal care committee. The mice were housed in a controlled environment with a 12 hour light-12 hour dark cycle and provided food and water ad libitum.
as §1
Sixty 3-month old male mice (n=˜8/group) were gavage fed an escalating dose of CPSI-1306 (0.001, 0.01, 0.1, 1.0, 10 or 25 mg/kg) or vehicle (PEG 400, H2O) for weeks 16-22.
(§4) Animals were inspected daily for general health with weights recorded at least biweekly and more frequently in the last several weeks based on recorded weight loss. Animals were euthanized by CO2 inhalation and cervical dislocation. Bladders were harvested, weighed, placed in PBS/formaldehyde for 24 hours and then transferred to PBS. Upper tracts (kidney and ureters) were inspected for hydronephrosis. Bladders were assessed for tumor stage and grade and amount of pathologic involvement with invasive disease. Bladders were sectioned in the mid-sagital plane, laid flat on the medial surface and step sectioned for whole mount pathologic analysis. Haematoxylin and eosin (H&E) staining was carried out to assess for histology and pathology. Bladders were step sectioned, embedded in paraffin, serially sectioned and stained with H&E and assessed for tumor stage and grade and amount of pathologic involvement with invasive disease. A single pathologist reviewed all slides in a blinded manner to provide a pathological diagnosis. As a tumor develops in the bladder, the size and weight of the bladder increases. Bladder weight is therefore a useful surrogate for bladder tumor burden, representing the relative amount of bladder tumor that develops during continual exposure to the carcinogen, BBN.
(§5) Values shown are means±SEM. […] Statistical analysis was performed using SPSS® version 2.03 (San Rafael, Calif.). Differences were examined by one-way analysis of variance (ANOVA) followed by the post-hoc Dunnett's test.

[3] = tested on: BBN model of bladder cancer; test: BBN model of bladder cancer, Experiment 1: bladder weight and pathology after oral gavage; format: in vivo, C57Bl/6 mice; details: for average bladder weight: Experiment 1, 25 mg/kg gavage weeks 16-22, control 0.5±0.5 gm; for mean of tissue involved with invasive disease (tumor burden) / upper tract obstruction (hydro-ureteronephrosis) at euthanasia: Experiment 1, 25 mg/kg gavage; for mean of tissue involved with invasive disease (tumor burden): SD ±30% (2705), ±32% (1306), control 81%; for upper tract obstruction (hydro-ureteronephrosis) at euthanasia: majority of control animals obstructed; for mean percentage of tumors representing invasive disease (FIG. 4E) / representative bladder tumor stage on H&E pathology: Experiment 1, 25 mg/kg; for mean percentage of tumors representing invasive disease (FIG. 4E): in words; for representative bladder tumor stage on H&E pathology: vehicle group infiltrative pT3 cancer; for Pieces involved / Pieces involved, in situ % / Pieces involved, inv % (invasive) / Squamous met and normal: Table 1, individual animal bladders, 25 mg/kg gavage weeks 16-22, 25 mg/kg
Method: as §3, §1, §2, §4, §5

[4] = Experiment 2, dose escalation, in words

SMILES | general health appearance during drug treatment ([1]; Experiment 1, 25 mg/kg gavage, compared to the other two treatment arms) | mean bladder weights at euthanasia as surrogate for tumor volume, effect vs vehicle ([2]; Experiment 2, 0.1 mg/kg gavage weeks 16-22) | mean bladder weights at euthanasia as surrogate for tumor volume, effect vs vehicle ([2]; Experiment 2, 1.0 mg/kg gavage weeks 16-22) | mean percentage of tumor representing invasive disease (FIG. 5B) [2, 4] | percentage of bladders in each dosing group with each pathologic stage (FIG. 5A) [2, 4] | average bladder weight [3] | mean of tissue involved with invasive disease (tumor burden) [3] | upper tract obstruction (hydro-ureteronephrosis) at euthanasia [3] | mean percentage of tumors representing invasive disease (FIG. 4E) [3] | representative bladder tumor stage on H&E pathology [3] | mean bladder weight, fold less than control group ([3]; Experiment 1, FIG. 1, p=0.06) | Pieces involved [3] | Pieces involved, in situ % [3] | Pieces involved, inv % (invasive) [3] | Squamous met and normal [3] | animals died prior to completion of the study ([1]; Experiment 1, n=10/group, 25 mg/kg gavage, control also two)
O=C(C[C@H]1CC(c2ccc(F)cc2F)=NO1)N1CCOCC1 [CPSI-1306] | appeared healthier | significant effect | significant effect | Smaller tumors with a smaller percentage of invasiveness | A decrease in the percentage of higher stage tumors | 0.2±0.2 gm | 59% | none seen | Smaller tumors with a smaller percentage of invasiveness | focal pT3 with areas of normal mucosa | 2.5 fold | 4 (6×) and 2 and 7 and 6 and 3 − inv, 1 − in situ | 5% (2×) and (15 + 15%) and 10% (2×) and 15% | 25% and (15 + 15%) and (20%) and (90%) (2×) and (95%) and 35% and 70% and 80% and 65% | 70% (2×) and 80% and 10% (3×) and <5% and 55% and 25% and 20% | –
CN(C(=O)C[C@H]1CC(c2ccc(Cl)cc2)=NO1)C1CCCCC1 [CPSI-2705] | – | – | – | – | – | 0.3±0.3 gm | 62% | Fewer animals were noted to have obstruction | Smaller tumors with a smaller percentage of invasiveness | pT1 disease | – | 8 (3×) and 2 (2×) and 6 and 4 (2×) and 1 − inv, 3 − in situ and 10 | 10% (2×) and 5% (2×) and 20% | 80% and 85% and (60%) and (70%) and 60% and (30%) and 10% and 30% and (95%) (2×) | 10% (2×) and 40% and 30% (2×) and 70% (2×) and 65% and <5% (2×) | Two
